From patent US6413960B1, “Substituted pyrazolyl benzenesulfonamides for the treatment of asthma” (G.D. Searle & Co., priority 1993, dated 2002)
Like-named read-outs stand apart in the source and are kept apart here.

Tests used:
Human COX II = target: T1, Human COX II (Homo sapiens, UniProt P35354); experiment: Assay for COX II activity in vitro (PGE2 ELISA, recombinant enzyme); format: biochemical; conditions: read-out: Human COX II ID50
T1 construct: A 2.0 kb fragment containing the coding region of either human or murine COX-I or human or murine COX-II; made in house; host or cells: SF9 insect cells (baculovirus, transfer vector pVL1393)
T1 sequence (P35354 18-604): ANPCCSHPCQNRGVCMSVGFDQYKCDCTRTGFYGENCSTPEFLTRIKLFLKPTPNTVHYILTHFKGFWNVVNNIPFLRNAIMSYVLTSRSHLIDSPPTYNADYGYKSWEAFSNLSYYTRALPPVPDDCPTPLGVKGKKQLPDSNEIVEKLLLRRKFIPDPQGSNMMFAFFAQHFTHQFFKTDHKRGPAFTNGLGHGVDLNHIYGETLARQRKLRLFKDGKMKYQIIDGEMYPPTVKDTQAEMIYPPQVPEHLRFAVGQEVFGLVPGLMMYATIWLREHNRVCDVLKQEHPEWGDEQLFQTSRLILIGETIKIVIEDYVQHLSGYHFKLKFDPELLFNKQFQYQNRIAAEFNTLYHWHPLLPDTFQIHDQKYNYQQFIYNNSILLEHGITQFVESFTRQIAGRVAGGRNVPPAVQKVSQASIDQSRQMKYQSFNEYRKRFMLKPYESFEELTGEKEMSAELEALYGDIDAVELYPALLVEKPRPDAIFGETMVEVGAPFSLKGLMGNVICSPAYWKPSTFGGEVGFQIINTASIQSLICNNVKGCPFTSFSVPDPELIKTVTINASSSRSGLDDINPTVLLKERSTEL
Experimental: The COX II inhibition activity of the compounds of this invention illustrated in the Examples was determined by the following methods.

Human COX I = target: T2, Human COX I (Homo sapiens, UniProt P23219); experiment: Assay for COX I activity in vitro (PGE2 ELISA, recombinant enzyme); format: biochemical
T2 construct: A 2.0 kb fragment containing the coding region of either human or murine COX-I or human or murine COX-II; made in house; host or cells: SF9 insect cells (baculovirus, transfer vector pVL1393)

[1] = tested on: Male Sprague-Dawley rats (carrageenan hyperalgesic foot withdrawal); conditions: rat, in vivo
Experimental: Rat Carrageenan-induced Analgesia Test
Male Sprague-Dawley rats were treated as previously described for the carrageenan Foot Pad Edema test. Three hours after the injection of the carrageenan, the rats were placed in a special plexiglass container with a transparent floor having a high intensity lamp as a radiant heat source, positionable under the floor. After an initial twenty minute period, thermal stimulation was begun on either the injected foot or on the contralateral uninjected foot. A photoelectric cell turned off the lamp and timer when light was interrupted by paw withdrawal. The time until the rat withdraws its foot was then measured. The withdrawal latency in seconds was determined for the control and drug-treated groups, and percent inhibition of the hyperalgesic foot withdrawal determined.

[2] = tested on: Male Sprague-Dawley rats (carrageenan foot edema); conditions: for RAT PAW EDEMA % Inhibition (* Assay performed at 30 mg/kg body weight): 30 mg/kg body weight (values marked *)
Experimental: Rat Carrageenan Foot Pad Edema Test
Male Sprague-Dawley rats were selected in each group so that the average body weight was as close as possible. Rats were fasted with free access to water for over sixteen hours prior to the test. […] One hour later a subplantar injection of 0.1 mL of 1% solution of carrageenan/sterile 0.9% saline was administered and the volume of the injected foot was measured with a displacement plethysmometer connected to a pressure transducer with a digital indicator. Three hours after the injection of the carrageenan, the volume of the foot was again measured.

[3] = oral, foot volume 3 h after carrageenan
[4] = oral, 10 mg/kg body weight, foot volume 3 h after carrageenan

T2 sequence (P23219 24-599): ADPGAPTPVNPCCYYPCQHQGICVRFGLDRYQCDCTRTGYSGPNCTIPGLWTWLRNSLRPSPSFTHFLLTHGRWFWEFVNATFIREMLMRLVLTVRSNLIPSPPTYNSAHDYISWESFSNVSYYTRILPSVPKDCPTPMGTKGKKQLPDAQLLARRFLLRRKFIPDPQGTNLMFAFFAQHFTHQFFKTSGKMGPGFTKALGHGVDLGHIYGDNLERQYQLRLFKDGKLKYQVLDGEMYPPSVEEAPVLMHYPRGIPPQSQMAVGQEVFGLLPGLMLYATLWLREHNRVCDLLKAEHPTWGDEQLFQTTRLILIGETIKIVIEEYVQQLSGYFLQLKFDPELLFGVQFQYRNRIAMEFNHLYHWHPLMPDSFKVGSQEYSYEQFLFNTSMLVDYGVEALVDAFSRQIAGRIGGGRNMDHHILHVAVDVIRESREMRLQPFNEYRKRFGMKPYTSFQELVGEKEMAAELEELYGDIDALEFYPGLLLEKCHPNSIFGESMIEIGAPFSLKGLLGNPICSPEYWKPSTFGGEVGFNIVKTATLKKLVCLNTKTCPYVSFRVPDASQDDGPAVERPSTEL

IC50 (Human COX II) [µM]	melting point	SMILES	also measured
14	–	CCCc1cc(-c2cc(C(F)(F)F)nn2-c2ccc(S(N)(=O)=O)cc2)ccc1OC [Example 7, 4-[5-(3-Propyl-4-methoxyphenyl)-3-(trifluoromethyl)-1H-pyrazol-1-yl]benzenesulfonamide]	–
–	215 to 218 °C	Cc1ccc2c(c1)CCc1c(C(F)(F)F)nn(-c3ccc(S(N)(=O)=O)cc3)c1-2 [Example 188, 4-[4,5-Dihydro-7-methyl-3-(trifluoromethyl)-1H-benz[g]indazol-1-yl]benzenesulfonamide]	IC50 (Human COX I; read-out: Human COX I ID50): 19.8 µM
–	–	NS(=O)(=O)c1ccc(-n2nc(C(F)(F)F)cc2-c2ccc(Cl)cc2)cc1 [Example 1, 4-[5-(4-Chlorophenyl)-3-(trifluoromethyl)-1H-pyrazol-1-yl]benzenesulfonamide]	ANALGESIA % Inhibition @ 30 mg/kg body weight [1]: 94%; RAT PAW EDEMA % Inhibition @ 10 mg/kg body weight ([2]; in vivo): 44%
0.6	–	Cc1c(-c2cc(C(F)(F)F)nn2-c2ccc(S(N)(=O)=O)cc2)ccc2c1OCO2 [Example 138, 4-[5-(4-methyl-1,3-benzodioxol-5-yl)-3-(trifluoromethyl)-1H-pyrazol-1-yl]benzenesulfonamide]	IC50 (Human COX I; read-out: Human COX I ID50): < 0.1 µM
1.1	–	CN(C)C=NS(=O)(=O)c1ccc(-n2nc(C#N)c(Cl)c2-c2ccc(F)cc2)cc1 [Example 259]	–
< 0.1	–	COC(=O)c1cc(-c2cc(F)c(OC)c(F)c2)n(-c2ccc(S(N)(=O)=O)cc2)n1 [Example 84, Methyl 1-(4-aminosulfonylphenyl)-5-(3,5-difluoro-4-methoxyphenyl)-1-H-pyrazole-3-carboxylate]	IC50 (Human COX I; read-out: Human COX I ID50): 65.5 µM
–	–	CC(C)Cc1nn(-c2ccc(S(N)(=O)=O)cc2)c(-c2ccccc2)c1Cl [Example 205, 4-(4-Chloro-3-isobutyl-5-phenyl-1H-pyrazol-1-yl)benzenesulfonamide]	IC50 (Human COX II; recombinant human COX II, arachidonic acid 10 μM, PGE2 ELISA): < 0.1 µM; IC50 (Human COX I; recombinant human COX I, arachidonic acid 10 μM, PGE2 ELISA, read-out: Human COX I ID50): 2.1 µM
–	–	NS(=O)(=O)c1ccc(-n2nc(C(=O)Nc3cccc(Cl)c3)cc2-c2ccc(F)cc2)cc1 [Example 98, N-(3-Chlorophenyl)-[1-(4-aminosulfonylphenyl)-5-(4-fluorophenyl)-1H-pyrazol-3-yl]carboxamide]	RAT PAW EDEMA % Inhibition (* Assay performed at 30 mg/kg body weight) [2, 3]: 2* %
6.7	–	NS(=O)(=O)c1ccc(-n2nc(C(F)(F)F)c(CO)c2-c2ccccc2)cc1 [Example 204, 4-[4-hydroxymethyl-5-phenyl-3-(trifluoromethyl)-1H-pyrazol-1-yl]benzenesulfonamide]	–
< 0.1	135 to 136 °C	CCc1c(C(F)(F)F)nn(-c2ccc(S(N)(=O)=O)cc2)c1-c1ccc(OC)c(C)c1 [Example 202, 4-[4-Ethyl-5-(3-methyl-4-methoxyphenyl)-3-(trifluoromethyl)-1H-pyrazol-1-yl]benzenesulfonamide]	IC50 (Human COX I; read-out: Human COX I ID50): 91 µM
–	–	NS(=O)(=O)c1ccc(-n2nc(C(F)(F)F)c(Cl)c2-c2ccc(Cl)cc2)cc1 [Example 199, 4-[5-(4-Chlorophenyl)-3-(trifluoromethyl)-4-chloro-1H-pyrazol-1-yl]benzenesulfonamide]	RAT PAW EDEMA % Inhibition @ 10 mg/kg body weight [2, 4]: 35%
–	–	N#Cc1cc(-c2ccc(F)cc2)n(-c2ccc(S(N)(=O)=O)cc2)n1 [Example 117]	RAT PAW EDEMA % Inhibition @ 10 mg/kg body weight [2, 4]: 32%
73.6	227 °C	COC(=O)c1cc(-c2ccc(Cl)cc2)n(-c2ccc(S(N)(=O)=O)cc2)n1 [Example 85, Methyl [1-(4-aminosulfonylphenyl)-5-(4-chlorophenyl)-1H-pyrazole-3-yl]carboxylate]	–
–	–	NS(=O)(=O)c1ccc(-n2nc(C(F)F)cc2-c2ccc3c(c2)OCO3)cc1 [Example 82, 4-[5-(1,3-Benzodioxol-5-yl)-3-(difluoromethyl)-1H-pyrazol-1-yl]benzenesulfonamide]	RAT PAW EDEMA % Inhibition (* Assay performed at 30 mg/kg body weight) [2, 3]: 22* %
< 0.1	130 to 133 °C	NS(=O)(=O)c1ccc(-n2nc(C(F)(F)Cl)cc2-c2ccc(Cl)cc2)cc1 [Example 129, 4-[5-(4-Chlorophenyl)-3-(chloro-difluoromethyl)-1H-pyrazol-1-yl]benzenesulfonamide]	RAT PAW EDEMA % Inhibition (* Assay performed at 30 mg/kg body weight) [2, 3]: 47* %; IC50 (Human COX I; read-out: Human COX I ID50): 13.5 µM
< 0.1	145 to 146 °C	Cc1c(C(F)(F)F)nn(-c2ccc(S(N)(=O)=O)cc2)c1-c1ccccc1 [Example 201, 4-[4-Methyl-5-phenyl-3-(trifluoromethyl)-1H-pyrazol-1-yl]benzenesulfonamide]	IC50 (Human COX I; read-out: Human COX I ID50): 2.2 µM
–	158 to 159 °C	NS(=O)(=O)c1ccc(-n2nc(C=NOCc3ccccc3)cc2-c2ccc(Cl)cc2)cc1 [Example 177, 4-[5-(4-Chlorophenyl)-3-[[(phenylmethoxy)imino]methyl]-1H-pyrazol-1-yl]benzenesulfonamide]	–

IC50 (Human COX II) [µM]	melting point	SMILES	also measured
0.6	288 to 290 °C	NS(=O)(=O)c1ccc(-n2nc(C(F)(F)F)c3c2-c2ccsc2CC3)cc1 [Example 196, 4-[4,5-Dihydro-3-(trifluoromethyl)-1-H-thieno[3,2-g]indazol-1-yl]benzenesulfonamide]	IC50 (Human COX I; read-out: Human COX I ID50): 4.1 µM
–	168 to 171 °C (dec.)	NS(=O)(=O)c1ccc(-n2ncc(Cl)c2-c2ccc(Cl)cc2)cc1 [Example 197, 4-[5-(4-Chlorophenyl)-4-chloro-1H-pyrazol-1-yl]benzenesulfonamide]	RAT PAW EDEMA % Inhibition (* Assay performed at 30 mg/kg body weight) [2, 3]: 45* %
1.1	–	CN(C)C=NS(=O)(=O)c1ccc(-n2nc(C#N)c(Br)c2-c2ccccc2)cc1 [Example 260, 4-[4-Bromo-3-cyano-5-phenyl-1H-pyrazol-1-yl]-N-[(dimethylamino)methylene]benzenesulfonamide]	–
3.5	180 to 182 °C	NS(=O)(=O)c1ccc(-n2nc(CCC(=O)O)cc2-c2ccc(F)cc2)cc1 [Example 174]	–
37.7	–	COc1ccc(-c2cc(C(F)(F)F)nn2-c2ccc(S(N)(=O)=O)cc2)cc1CC1CC1 [Example 8, 4-[5-(3-Cyclopropylmethyl-4-methoxyphenyl)-3-(trifluoromethyl)-1H-pyrazol-1-yl]benzenesulfonamide]	–
4.2	–	NS(=O)(=O)c1ccc(-n2nc(CCCO)cc2-c2ccccc2)cc1 [Example 172, 4-[5-Phenyl-3-(3-hydroxypropyl)-1H-pyrazol-1-yl]benzenesulfonamide]	–
6.5	108 to 110 °C	NC(=O)c1cc(-c2ccc(Cl)cc2)n(-c2ccc(S(N)(=O)=O)cc2)n1 [Example 96]	–
0.5	–	CCOC(=O)c1cc(-c2ccc(Cl)cc2)n(-c2ccc(S(N)(=O)=O)cc2)n1 [Example 86, Ethyl [1-(4-aminosulfonylphenyl)-5-(4-chlorophenyl)-1H-pyrazole-3-yl]carboxylate]	–
–	–	C=CCc1cc(-c2cc(C(F)(F)F)nn2-c2ccc(S(N)(=O)=O)cc2)ccc1OC [Example 6, 4-[5-(3-(3-Propenyl)-4-methoxyphenyl)-3-(trifluoromethyl)-1H-pyrazol-1-yl]benzenesulfonamide]	IC50 (Human COX I): 78.7 µM
–	257 to 258 °C	NS(=O)(=O)c1ccc(-n2nc(C(F)(F)F)c3c2-c2ccccc2CC3)cc1 [Example 187, 4-[4,5-Dihydro-3-(trifluoromethyl)-1H-benz[g]indazol-1-yl]benzenesulfonamide]	–
< 0.1	–	COc1c(Cl)cc(-c2cc(C(F)(F)F)nn2-c2ccc(S(N)(=O)=O)cc2)cc1Cl [Example 3, 4-[5-(3,5-Dichloro-4-methoxyphenyl)-3-(trifluoromethyl)-1H-pyrazol-1-yl]benzenesulfonamide]	–
–	191 to 194 °C	NS(=O)(=O)c1ccc(-n2nc(C(F)F)cc2-c2cnccn2)cc1 [Example 137, 4-[5-(2-Pyrazinyl)-3-(difluoromethyl)-1H-pyrazol-1-yl]benzenesulfonamide]	–
4.7	–	NS(=O)(=O)c1ccc(-n2nc(CCCO)cc2-c2ccc(F)cc2)cc1 [Example 173, 4-[5-(4-Fluorophenyl)-3-(3-hydroxypropyl)-1H-pyrazol-1-yl]benzenesulfonamide]	–
0.3	–	CCOC(=O)C(C#N)=Cc1cc(-c2ccccc2)n(-c2ccc(S(N)(=O)=O)cc2)n1 [Example 176, Ethyl 3-[1-[4-(aminosulfonyl)phenyl]-5-phenyl-1H-pyrazol-3-yl]-2-cyano-2-propenoate]	–
3.6	190 to 193 °C	COc1ccc(-c2cc(C(Cl)Cl)nn2-c2ccc(S(N)(=O)=O)cc2)cc1F [Example 130, 4-[3-(Dichloromethyl)-5-(3-fluoro-4-methoxyphenyl)-1H-pyrazol-1-yl]benzenesulfonamide]	IC50 (Human COX I; read-out: Human COX I ID50): 12.5 µM
27	173 to 174 °C	NS(=O)(=O)c1ccc(-n2nc(C(F)(F)F)c(C3CC3)c2-c2ccccc2)cc1 [Example 203, 4-[4-Cyclopropyl-5-phenyl-3-(trifluoromethyl)-1H-pyrazol-1-yl]benzenesulfonamide]	–
